Test systems include NCI-H460 lung; HS 578T breast; SNB-19 CNS; EKVX NSCLC; K-562 leukemia; SW-620 colon; CCRF-CEM leukemia; CAKI-1 renal; SNB-75 CNS; MCF7 breast; SF-539 CNS.
Common to all, as to assay: inhibition of tumour cell growth, NCI panel, 48 h

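Cultured in 96-well plates, cells were exposed to test compound for 48 hours across five concentrations. GI50 is the concentration that inhibits growth by half. The concentration for full growth arrest is given as TGI.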 Where a SMILES comes first, the peptide text is derived from it. The star is where a group is joined. OSu = O=C1CCC(=O)N1O* Some results are limits rather than exact numbers.

For the compound `Cc1ccc(-[n+]2cc([O-])on2)cc1`, the TGI in the assay with NCI-H460 lung, in the assay with HS 578T breast, in the assay with SNB-19 CNS, in the assay on EKVX NSCLC, with K-562 leukemia and in the assay on SW-620 colon was more than 100 µM in each case. Further, the TGI in the assay on CCRF-CEM leukemia and with CAKI-1 renal was more than 100 µM in each case.
On to `Cc1cn(C2OC(CO[Si](C)(C)C(C)(C)C)C(N(C)O[Si](C)(C)C(C)(C)C)C2[Se]c2ccccc2)c(=O)[nH]c1=O` (configuration not stated), for which the TGI in the assay on SNB-75 CNS is 21.4 µM; in the assay on HS 578T breast, 7.58 µM; in the assay with SNB-19 CNS, 32.2 µM; with MCF7 breast it was 25.4 µM; in the assay on K-562 leukemia, more than 100 µM; with SW-620 colon it was more than 100 µM. The TGI in the assay on CCRF-CEM leukemia was more than 100 µM.
As to `N#Cc1cccc(-n2[nH]c(=O)ccc2=O)c1`, the TGI in the assay on SF-539 CNS, with SNB-75 CNS, in the assay on NCI-H460 lung, in the assay on SNB-19 CNS, in the assay on K-562 leukemia and in the assay with SW-620 colon was more than 100 µM throughout. In addition, the TGI in the assay with CCRF-CEM leukemia and in the assay on CAKI-1 renal was more than 100 µM throughout.
In the case of `CC1(C)[C@@H](Cn2cc(I)c(=O)[nH]c2=O)CC[C@@]1(C)CO`, the TGI in the assay with SNB-75 CNS, in the assay with HS 578T breast, in the assay with SNB-19 CNS, with EKVX NSCLC, in the assay with K-562 leukemia and with SW-620 colon was more than 100 µM in each case. The TGI in the assay on CCRF-CEM leukemia and with CAKI-1 renal was more than 100 µM each time.
In the case of `COC(=O)CC(C)(NS(=O)c1ccc(C)cc1)c1ccccc1` (configuration not stated), the TGI in the assay on SF-539 CNS, in the assay on NCI-H460 lung, with HS 578T breast, in the assay on SNB-19 CNS, in the assay with MCF7 breast and in the assay with EKVX NSCLC was more than 100 µM in each case. Besides, the TGI in the assay with K-562 leukemia and with SW-620 colon was more than 100 µM throughout.
`CCOC(=O)c1ccc(-c2cc(C)no2)[nH]1`: the TGI with SF-539 CNS, in the assay on SNB-75 CNS, in the assay on NCI-H460 lung, in the assay on SNB-19 CNS, with EKVX NSCLC and with K-562 leukemia was more than 100 µM throughout. The TGI was more than 100 µM in the assay on SW-620 colon, more than 100 µM in the assay on CCRF-CEM leukemia and 71.5 µM in the assay on CAKI-1 renal.
Regarding `NCCCCC(NC(=O)C(N)Cc1ccc(O)cc1)C(=O)NC(CCCCN)C(=O)NC(CCCCN)C(=O)ON1C(=O)CCC1=O` (configuration not stated) (H-YKKK-OSu; configuration not given here), the TGI in the assay with SNB-75 CNS, with NCI-H460 lung, with HS 578T breast, in the assay with SNB-19 CNS, in the assay on MCF7 breast and with EKVX NSCLC was more than 100 µM each time. For the same compound, the TGI with K-562 leukemia and with SW-620 colon was more than 100 µM each time.
For `CCNC(=O)c1ccc(C)c(N=NN(C)C)c1`, the TGI in the assay with SF-539 CNS, with NCI-H460 lung, in the assay on SNB-19 CNS, in the assay with EKVX NSCLC, with SW-620 colon and with CAKI-1 renal was more than 100 µM in each case.
Regarding `O=c1[nH]c2cc(Cl)ccc2nc1/C(=N\Nc1ccccc1)C(O)c1ccc(Cl)c(Cl)c1` (configuration not stated), the TGI in the assay on SF-539 CNS, in the assay with SNB-75 CNS, in the assay with NCI-H460 lung, in the assay with SNB-19 CNS, in the assay with EKVX NSCLC and with K-562 leukemia was more than 100 µM each time. Moreover, the TGI with SW-620 colon and in the assay with CCRF-CEM leukemia was more than 100 µM in each case.
Consider `CON(C)C(=O)C(Cc1ccccc1)NC(=O)OCc1ccccc1` (configuration not stated), for which the TGI with SF-539 CNS, in the assay with SNB-75 CNS, in the assay with NCI-H460 lung, with SNB-19 CNS, in the assay on EKVX NSCLC and with K-562 leukemia was more than 100 µM each time. In addition, the TGI with SW-620 colon, with CCRF-CEM leukemia and in the assay with CAKI-1 renal was more than 100 µM in each case.
For the compound `CCCCCCOc1ccc(/C=N/Nc2cc(C)nc3ccc(Cl)cc23)cc1`, the GI50 in the assay on SF-539 CNS is 1.84 µM; in the assay on SNB-75 CNS it was 1.81 µM; in the assay on SNB-19 CNS, 1.88 µM; with MCF7 breast, 1.47 µM; in the assay on K-562 leukemia, 0.467 µM; in the assay on CAKI-1 renal it was 1.65 µM. Further, the TGI amounted to 3.26 µM in the assay with SF-539 CNS; 3.43 µM in the assay on SNB-75 CNS; 3.39 µM with SNB-19 CNS; 3.2 µM in the assay with MCF7 breast; 2.22 µM with K-562 leukemia; 3.06 µM in the assay with CAKI-1 renal.
Turning to `CCN(CC)CCCNC(=O)c1cc(-c2nccn2C)nc2ccccc12`, the TGI in the assay on SF-539 CNS, with SNB-75 CNS, in the assay with NCI-H460 lung, in the assay on SNB-19 CNS, in the assay with MCF7 breast and in the assay with EKVX NSCLC was more than 100 µM in each case. For the same compound, the TGI in the assay on K-562 leukemia, in the assay with SW-620 colon, with CCRF-CEM leukemia and in the assay on CAKI-1 renal was more than 100 µM in each case.
Consider `CCOC(=O)c1cc(-c2ccc(OC)cc2)c([N+](=O)[O-])n1C`, for which the TGI with SF-539 CNS, in the assay on SNB-75 CNS, with NCI-H460 lung, with HS 578T breast, with SNB-19 CNS and in the assay with EKVX NSCLC was more than 10 µM in each case. In addition, the TGI in the assay on K-562 leukemia and in the assay with CCRF-CEM leukemia was more than 10 µM each time.
For `COc1cc2c(cc1O)[C@H](C)C(c1ccc(OC)c(OC)c1)O2` (some centres not stated), the TGI with SF-539 CNS was 38.6 µM; with SNB-75 CNS it was 11.7 µM; with NCI-H460 lung, 4.87 µM; with SNB-19 CNS it was 65.3 µM; in the assay with EKVX NSCLC it was more than 100 µM; with K-562 leukemia it was 17.4 µM. Further, the TGI in the assay with SW-620 colon was found to be 19.4 µM; in the assay with CCRF-CEM leukemia it was 25.6 µM; in the assay on CAKI-1 renal, 15.9 µM.
Take `COc1ccc(C2Oc3cc(OC)c(OC)cc3C2CCl)cc1OC` (configuration not stated): the TGI in the assay on SF-539 CNS, with SNB-75 CNS, in the assay on NCI-H460 lung, in the assay with SNB-19 CNS, in the assay on EKVX NSCLC and in the assay with K-562 leukemia was more than 100 µM throughout. For the same compound, the TGI in the assay with SW-620 colon, in the assay with CCRF-CEM leukemia and in the assay with CAKI-1 renal was more than 100 µM throughout.

For the origin of these results see PubChem BioAssay (NCI).
